# Measurements as given in patent US5621010A, “Urea derivatives and their use as ACAT inhibitors” (Nisshin Flour Milling Co., Ltd., priority 1993, dated 1997).
# Columns and labels:
# [1] = tested on: ACAT (liver microsome fractions of male rabbits); experiment: ACAT inhibitory activity: formation of labelled cholesteryl esters from [1-14C]oleoyl-CoA and endogenous cholesterol; type: biochemical, rabbit; conditions: compound added at 10^-7 M
# Description: The enzyme preparation, ACAT was prepared from liver microsme fractions of male rabbits according to the method of E. E. Largis et al. (Journal of Lipid Research, Vol. 30, pages 681-690, 1989). The activity was calculated by assaying the amount of the labelled cholesteryl esters formed from [1-^14 C]oleoyl-CoA and endogenous cholesterol according to the method of Kazuichi NATORI et al. (Japan J. Pharmacol., Vol. 42, pages 517-523, 1986).
# The result is shown in Table 1, in which percent inhibition of the formation of the labelled cholesteryl esters with a compound added at 10^-7 M is indicated as index for the ACAT inhibitory activity.
# Human LDL = experiment: Antioxidative activity: inhibition of MDA formation from LDL incubated with cupric sulfate; type: biochemical; conditions: compound 10^-5 M; cupric sulfate 5×10^-6 M; 5 hrs; compared with control
# Description: Human LDL was incubated in the presence of cupric sulfate (5×10^-6 M) and in the presence or absence of a compound (10^-5 M) for 5 hrs. After the incubation, the peroxidation of low-density lipoproteins (LDL) is evaluated by the formation of malondialdehyde (MDA), which is a sort of lipid peroxides according to the method of Simon J. T. Mao et al. (J. Med. Chem., Vol. 34, pages 298-302, 1991). Activity of the compound is shown by percent inhibition of the MDA formation as compared with control.
# [2] = Cholesterol-lowering activity in hypercholesteremic rats; type: in vivo, Sprague-Dawley male rats; conditions: 30 mg/kg oral, in 0.5% methylcellulose; plasma cholesterol prior to and 5 hrs after administration
# Description: Sprague-Dawley male rats were given a powdery feed containing 1% cholesterol and 0.5% cholic acid in an amount of 15 g per day per animal for 3 days to produce hypercholesteremic rats. Four days later, a compound suspended in 0.5% methylcellulose was administered orally at a dose of 30 mg/kg. Blood was drawn prior to and 5 hrs after the administration of the compound, for which the plasma cholesterol level was measured using a commercially available assay kit (Cholesterol E Test Wako, Wako Junyaku K.K.).
Structure (SMILES),ACAT Inhibition [1] [%],Antioxidant Activity (percent inhibition of the MDA formation) (Human LDL) [%],Percent Reduction of Cholesterol [2] [%]
"CC(C)(C)c1cc(CCc2ccccc2NC(=O)NC2CCN(Cc3ccc(F)cc3)CC2)cc(C(C)(C)C)c1O [Example 83, N-[2-(3,5-di-tert-butyl-4-hydroxyphenethyl)phenyl]-N'-[1-(4-fluorobenzyl)-4-piperidyl]urea]",96,96,44.6
"CN(C(=O)Nc1ccccc1CCc1cc(C(C)(C)C)c(O)c(C(C)(C)C)c1)C1CCN(Cc2ccccc2)CC1 [Example 92, N-[2-(3,5-di-tert-butyl-4-hydroxyphenethyl)phenyl]-N'-(1-benzyl-4-piperidyl)-N'-methylurea]",99,96,79.9
"CCCCCCCN(C)C(=O)Nc1ccccc1/C=C/c1cc(C(C)(C)C)c(O)c(C(C)(C)C)c1 [Example 105, N-[2-(3,5-di-tert-butyl-4-hydroxystyryl)phenyl]-N'-methyl-N'-heptylurea]",,,45.9
"CCCCCCOc1ccc(NC(=O)Nc2ccccc2CCc2cc(C(C)(C)C)c(O)c(C(C)(C)C)c2)cc1 [Example 1, N-[2-(3,5-di-tert-butyl-4-hydroxyphenethyl)phenyl]-N'-(4-hexyloxyphenyl)urea]",83,94,
CC(C)(C)c1cc(CCc2ccccc2NC(=O)NC2CCC(OCc3ccccc3)CC2)cc(C(C)(C)C)c1O (stereo not shown) [Example 57],89,95,
"CCCCCCCN(Cc1ccccc1)C(=O)Nc1ccccc1CCc1cc(C(C)(C)C)c(O)c(C(C)(C)C)c1 [Example 40, N-[2-(3,5-di-tert-butyl-4-hydroxyphenethyl)phenyl]-N'-benzyl-N'-heptylurea]",96,98,
"CC(C)(C)c1cc(CCc2cc(F)cc(F)c2NC(=O)NC2CCN(Cc3ccccc3)CC2)cc(C(C)(C)C)c1O [Example 108, N-[2-(3,5-di-tert-butyl-4-hydroxyphenethyl)-4,6-difluorophenyl]-N'-(1-benzyl-4-piperidyl)urea]",97,93,71.8
"CC(C)(C)c1cc(CCc2ccccc2NC(=O)NC2CCCCCCC2)cc(C(C)(C)C)c1O [Example 18, N-[2-(3,5-di-tert-butyl-4-hydroxyphenethyl)phenyl]-N'-cyclooctylurea]",97,97,
"CC(C)(C)c1cc(CCc2ccccc2NC(=O)NC2CCN(Cc3ccc(F)cc3F)CC2)cc(C(C)(C)C)c1O [Example 80, N-[2-(3,5-di-tert-butyl-4-hydroxyphenethyl)phenyl]-N'-[1-(2,4-difluorobenzyl)-4-pyperidyl]urea]",92,96,
"CC(C)(C)c1cc(CCc2ccccc2NC(=O)NC2CCN(Cc3ccccc3)CC2)cc(C(C)(C)C)c1O [Example 35, N-[2-(3,5-di-tert-butyl-4-hydroxyphenethyl)phenyl]-N'-(1-benzyl-4-piperidyl)urea]",82,94,48.4
"CC(C)(C)c1cc(CCc2ccccc2NC(=O)NCC2CCCCC2)cc(C(C)(C)C)c1O [Example 90, N-[2-(3,5-di-tert-butyl-4-hydroxyphenethyl)phenyl]-N'-(cyclohexylmethyl)urea]",92,93,
"CC(C)(C)c1cc(CCc2ccccc2NC(=O)NCc2ccco2)cc(C(C)(C)C)c1O [Example 30, N-[2-(3,5-di-tert-butyl-4-hydroxyphenethyl)phenyl]-N'-[(2-furyl)methyl]urea]",84,92,
"CC(C)(C)c1cc(CCc2ccccc2NC(=O)NC(c2ccccc2)c2ccccc2)cc(C(C)(C)C)c1O [Example 29, N-[2-(3,5-di-tert-butyl-4-hydroxyphenethyl)phenyl]-N'-diphenylmethylurea]",99,95,
"CN(C(=O)Nc1ccccc1CCc1cc(C(C)(C)C)c(O)c(C(C)(C)C)c1)C1CCCCC1 [Example 43, N-[2-(3,5-di-tert-butyl-4-hydroxyphenethyl)phenyl]-N'-cyclohexyl-N'-methylurea]",99,99,
"CC(C)(C)c1cc(CCc2ccccc2NC(=O)NC2CCC(C(C)(C)C)CC2)cc(C(C)(C)C)c1O (stereo not shown) [Example 52, N-[2-(3,5-di-tert-butyl-4-hydroxyphenethyl)phenyl]-N'-(4-tert-butylcyclohexyl)urea]",97,94,
"CC(C)(C)c1cc(CCc2ccccc2NC(=O)N2CCCC3CCCCC32)cc(C(C)(C)C)c1O (stereo not shown) [Example 130, 1-[N-[2-(3,5-di-tert-butyl-4-hydroxyphenethyl)phenyl]carbamoyl]decahydroquinoline]",99,95,71.5
"CC(C)(C)c1cc(CCc2ccccc2NC(=O)NC(C2CCCCC2)C2CCCCC2)cc(C(C)(C)C)c1O [Example 50, N-[2-(3,5-di-tert-butyl-4-hydroxyphenethyl)phenyl]-N'-(dicyclohexylmethyl)urea]",88,90,
"CC(C)(C)CN1CCC(NC(=O)Nc2ccccc2CCc2cc(C(C)(C)C)c(O)c(C(C)(C)C)c2)CC1 [Example 97, N-[2-(3,5-di-tert-butyl-4-hydroxyphenethyl)phenyl]-N'-[1-(2,2-dimethylpropyl)-4-piperidyl]urea]",89,96,
"CC(C)(C)c1cc(CCc2ccccc2NC(=O)N(Cc2ccccc2)Cc2ccccc2)cc(C(C)(C)C)c1O [Example 42, N-[2-(3,5-di-tert-butyl-4-hydroxyphenethyl)phenyl]-N',N'-dibenzylurea]",95,97,
"CN(C(=O)Nc1ccccc1CCc1cc(C(C)(C)C)c(O)c(C(C)(C)C)c1)C1CCCN(Cc2ccccc2)C1 (stereo not shown) [Example 99, N-[2-(3,5-di-tert-butyl-4-hydroxyphenethyl)phenyl]-N'-(1-benzyl-3-piperidyl)-N'-methylurea]",100,95,
"CCCCCCCN(C)C(=O)Nc1ccccc1CCc1cc(C(C)(C)C)c(O)c(C(C)(C)C)c1 [Example 41, N-[2-(3,5-di-tert-butyl-4-hydroxyphenethyl)phenyl]-N'-heptyl-N'-methylurea]",97,99,
